Data as given in patent US8952024B2, “Herbicidal pyrimidone derivatives” (E I du Pont de Nemours and Company, priority 2009, dated 2015).

Experiments:
Assay in all cases: Test D pre-/postemergence plant response
Format in all cases: in vivo
[1] = test system: dallisgrass (Paspalum dilatatum)
Excerpt: (§1) Seeds of plant species selected from bermudagrass (Cynodon dactylon), Surinam grass (Brachiaria decumbens), large crabgrass (Digitaria sanguinalis), green foxtail (Setaria viridis), goosegrass (Eleusine indica), johnsongrass (Sorghum halepense), kochia (Kochia scoparia), morningglory (pitted morningglory, Ipomoea lacunosa), nutsedge (purple nutsedge, Cyperus rotundus), ragweed (common ragweed, Ambrosia elatior), black mustard (Brassica nigra), guineagrass (Panicum maximum), dallisgrass (Paspalum dilatatum), barnyardgrass (Echinochloa crus-galli), sandbur (southern sandbur, Cenchrus echinatus), sowthistle (common sowthistle, Sonchus oleraceous), prickly sida (Sida spinosa), Italian ryegrass (Lolium multiflorum), purslane (common purslane, Portulaca oleracea), signalgrass (broadleaf signalgrass, Brachiaria platyphylla), groundsel (common groundsel, Senecio vulgaris), chickweed (common chickweed, Stellaria media), dayflower (Virginia (VA) dayflower, Commelina virginica), bluegrass (annual bluegrass, Poa annua), naked crabgrass (Digitaria nuda), itchgrass (Rottboellia cochinchinensis), quackgrass (Elytrigia repens), field bindweed (Convolvulus arvensis), spanishneedles (Bidens bipinnata), mallow (common mallow, Malva sylvestris) and Russian thistle (Salsola kali), were planted into a blend of loam soil and sand and treated preemergence with test chemicals formulated in a non-phytotoxic solvent mixture which included a surfactant. At the same time, plants from these weed species were treated with postemergence applications of the test chemicals formulated in the same manner. Plants ranged in height from 2 to 18 cm (1- to 4-leaf stage) for postemergence treatments.
(§2) Treated plants and controls were maintained in a greenhouse for 14 to 21 days, after which time all species were visually evaluated and compared to controls. Plant response ratings, summarized in Table D, are based on a scale of 0 to 100 where 0 is no effect and 100 is complete control. A dash (-) response means no test result.

[2] = test system: kochia (Kochia scoparia)
Excerpt: as §1, §2

[3] = test system: sandbur (southern sandbur, Cenchrus echinatus)
Excerpt: as §1, §2

[4] = test system: ragweed (common ragweed, Ambrosia elatior)
Excerpt: as §1, §2

[5] = test system: goosegrass (Eleusine indica)
Excerpt: as §1, §2

[6] = test system: morningglory (pitted morningglory, Ipomoea lacunosa)
Excerpt: as §1, §2

[7] = test system: Surinam grass (Brachiaria decumbens)
Excerpt: as §1, §2

[8] = test system: quackgrass (Elytrigia repens)
Excerpt: as §1, §2

[9] = test system: dayflower (Virginia (VA) dayflower, Commelina virginica)
Excerpt: as §1, §2

[10] = test system: purslane (common purslane, Portulaca oleracea)
Excerpt: as §1, §2

[11] = test system: bluegrass (annual bluegrass, Poa annua)
Excerpt: as §1, §2

[12] = test system: black mustard (Brassica nigra)
Excerpt: as §1, §2

[13] = test system: signalgrass (broadleaf signalgrass, Brachiaria platyphylla)
Excerpt: as §1, §2

[14] = test system: chickweed (common chickweed, Stellaria media); settings: Postemergence
Excerpt: as §1, §2

[15] = test system: large crabgrass (Digitaria sanguinalis)
Excerpt: as §1, §2

[16] = test system: Russian thistle (Salsola kali)
Excerpt: as §1, §2

[17] = Postemergence, 16 g ai/ha, scale 0 to 100
[18] = Postemergence, 31 g ai/ha, scale 0 to 100
[19] = Postemergence, 125 g ai/ha, scale 0 to 100 (0 no effect, 100 complete control)
[20] = Postemergence, 62 g ai/ha, scale 0 to 100 (0 no effect, 100 complete control)
[21] = Preemergence, 16 g ai/ha, scale 0 to 100, 0 no effect, 100 complete control
[22] = Preemergence, 31 g ai/ha, scale 0 to 100 (0 no effect, 100 complete control)
[23] = Preemergence, 62 g ai/ha, scale 0 to 100
[24] = Preemergence, 125 g ai/ha, scale 0 to 100
[25] = Postemergence, 31 g ai/ha, scale 0 to 100 (0 no effect, 100 complete control)
[26] = 125 g ai/ha, scale 0 to 100 (0 no effect, 100 complete control)
[27] = Postemergence, 250 g ai/ha, scale 0 to 100 (0 no effect, 100 complete control)

Cc1c(F)cccc1-n1c(-c2ccccc2)ncc(C(=O)C2=C(O)CCCC2=O)c1=O [Compound 47, 3-(3-fluoro-2-methylphenyl)-5-[(2-hydroxy-6-oxo-1-cyclohexen-1-yl)carbonyl]-2-phenyl-4(3H)-pyrimidinone]
Plant response rating, Dallisgrass [1, 17]: 5
Plant response rating, Dallisgrass [1, 18]: 10
Plant response rating, Dallisgrass [1, 19]: 15
Plant response rating, Dallisgrass [1, 20]: 15
Plant response rating, Dallisgrass [1, 21]: 0
Plant response rating, Dallisgrass [1, 22]: 25
Plant response rating, Dallisgrass [1, 23]: 65
Plant response rating, Dallisgrass [1, 24]: 75
Plant response rating, Kochia [2, 17]: 0
Plant response rating, Kochia [2, 18]: 10
Plant response rating, Kochia [2, 19]: 30
Plant response rating, Kochia [2, 20]: 20
Plant response rating, Kochia [2, 21]: 0
Plant response rating, Kochia [2, 22]: 50
Plant response rating, Kochia [2, 23]: 100
Plant response rating, Kochia [2, 24]: 100
Plant response rating, Sandbur [3, 17]: 5
Plant response rating, Sandbur [3, 18]: 5
Plant response rating, Sandbur [3, 19]: 35
Plant response rating, Sandbur [3, 20]: 20
Plant response rating, Sandbur [3, 21]: 0
Plant response rating, Sandbur [3, 22]: 0
Plant response rating, Sandbur [3, 24]: 90
Plant response rating, Ragweed [4, 17]: 75
Plant response rating, Ragweed [4, 18]: 75
Plant response rating, Ragweed [4, 19]: 95
Plant response rating, Ragweed [4, 20]: 80
Plant response rating, Ragweed [4, 21]: 0
Plant response rating, Ragweed [4, 22]: 50
Plant response rating, Ragweed [4, 24]: 100
Plant response rating, Goosegrass [5, 17]: 40
Plant response rating, Goosegrass [5, 18]: 65
Plant response rating, Goosegrass [5, 19]: 65
Plant response rating, Goosegrass [5, 20]: 65
Plant response rating, Goosegrass [5, 21]: 0
Plant response rating, Goosegrass [5, 22]: 0
Plant response rating, Goosegrass [5, 23]: 5
Plant response rating, Goosegrass [5, 24]: 75
Plant response rating, Morningglory [6, 17]: 5
Plant response rating, Morningglory [6, 18]: 5
Plant response rating, Morningglory [6, 19]: 50
Plant response rating, Morningglory [6, 21]: 0
Plant response rating, Morningglory [6, 22]: 0
Plant response rating, Morningglory [6, 23]: 20
Plant response rating, Morningglory [6, 24]: 65
Plant response rating, Surinam Grass [7, 17]: 35
Plant response rating, Surinam Grass [7, 18]: 50
Plant response rating, Surinam Grass [7, 19]: 70
Plant response rating, Surinam Grass [7, 20]: 60
Plant response rating, Surinam Grass [7, 21]: 0
Plant response rating, Quackgrass [8, 17]: 0
Plant response rating, Quackgrass [8, 18]: 0
Plant response rating, Quackgrass [8, 19]: 5
Plant response rating, Quackgrass [8, 20]: 0
Plant response rating, Quackgrass [8, 21]: 0
Plant response rating, Quackgrass [8, 22]: 0
Plant response rating, Quackgrass [8, 24]: 0
Plant response rating, Dayflower, VA [9, 17]: 10
Plant response rating, Dayflower, VA [9, 18]: 15
Plant response rating, Dayflower, VA [9, 19]: 30
Plant response rating, Dayflower, VA [9, 20]: 20
Plant response rating, Dayflower, VA [9, 21]: 35
Plant response rating, Dayflower, VA [9, 22]: 35
Plant response rating, Dayflower, VA [9, 23]: 50
Plant response rating, Dayflower, VA [9, 24]: 50
Plant response rating, Purslane [10, 17]: 20
Plant response rating, Purslane [10, 18]: 20
Plant response rating, Purslane [10, 19]: 30
Plant response rating, Purslane [10, 20]: 30
Plant response rating, Purslane [10, 21]: 0
Plant response rating, Purslane [10, 22]: 0
Plant response rating, Purslane [10, 23]: 95
Plant response rating, Purslane [10, 24]: 100
Plant response rating, Bluegrass [11, 17]: 0
Plant response rating, Bluegrass [11, 25]: 0
Plant response rating, Bluegrass [11, 19]: 0
Plant response rating, Bluegrass [11, 20]: 0
Plant response rating, Bluegrass [11, 21]: 0
Plant response rating, Bluegrass [11, 22]: 0
Plant response rating, Bluegrass [11, 23]: 0
Plant response rating, Bluegrass [11, 24]: 35
Plant response rating, Black Mustard [12, 17]: 95
Plant response rating, Black Mustard [12, 25]: 100
Plant response rating, Black Mustard [12, 19]: 100
Plant response rating, Black Mustard [12, 20]: 100
Plant response rating, Black Mustard [12, 21]: 0
Plant response rating, Black Mustard [12, 22]: 65
Plant response rating, Black Mustard [12, 23]: 80
Plant response rating, Black Mustard [12, 24]: 100
Plant response rating, Signalgrass [13, 17]: 0
Plant response rating, Signalgrass [13, 18]: 5
Plant response rating, Signalgrass [13, 19]: 20
Plant response rating, Signalgrass [13, 20]: 15
Plant response rating, Signalgrass [13, 21]: 0
Plant response rating, Signalgrass [13, 22]: 0
Plant response rating, Signalgrass [13, 24]: 90
Plant response rating, Chickweed ([14]; 16 g ai/ha, scale 0 to 100): 50
Plant response rating, Chickweed ([14]; 31 g ai/ha, scale 0 to 100): 65
Plant response rating, Chickweed [14, 26]: 65
Plant response rating, Crabgrass, Large [15, 17]: 20
Plant response rating, Crabgrass, Large [15, 18]: 50
Plant response rating, Crabgrass, Large [15, 19]: 65
Plant response rating, Crabgrass, Large [15, 20]: 60
Plant response rating, Crabgrass, Large [15, 21]: 0
Plant response rating, Crabgrass, Large [15, 22]: 0
Plant response rating, Crabgrass, Large [15, 23]: 5
Plant response rating, Crabgrass, Large [15, 24]: 95
Plant response rating, Russian Thistle [16, 17]: 20
Plant response rating, Russian Thistle [16, 20]: 20
Plant response rating, Russian Thistle [16, 21]: 0
Plant response rating, Russian Thistle [16, 24]: 100

CCCCn1c(-c2ccccc2)ncc(C(=O)C2=C(O)C3CCC(C3)C2=O)c1=O (centres unmarked) [Compound 240]
Plant response rating, Dallisgrass [1, 18]: 5
Plant response rating, Dallisgrass [1, 19]: 75
Plant response rating, Dallisgrass [1, 27]: 75
Plant response rating, Dallisgrass [1, 20]: 70
Plant response rating, Kochia [2, 18]: 20
Plant response rating, Kochia [2, 19]: 65
Plant response rating, Kochia [2, 27]: 70
Plant response rating, Kochia [2, 20]: 65
Plant response rating, Sandbur [3, 18]: 70
Plant response rating, Sandbur [3, 19]: 90
Plant response rating, Sandbur [3, 27]: 90
Plant response rating, Sandbur [3, 20]: 70
Plant response rating, Ragweed [4, 18]: 70
Plant response rating, Ragweed [4, 19]: 80
Plant response rating, Ragweed [4, 27]: 90
Plant response rating, Ragweed [4, 20]: 75
Plant response rating, Goosegrass [5, 18]: 70
Plant response rating, Goosegrass [5, 19]: 80
Plant response rating, Goosegrass [5, 27]: 80
Plant response rating, Goosegrass [5, 20]: 70
Plant response rating, Morningglory [6, 18]: 65
Plant response rating, Morningglory [6, 19]: 90
Plant response rating, Morningglory [6, 27]: 95
Plant response rating, Morningglory [6, 20]: 80
Plant response rating, Surinam Grass [7, 18]: 70
Plant response rating, Surinam Grass [7, 19]: 95
Plant response rating, Surinam Grass [7, 27]: 95
Plant response rating, Surinam Grass [7, 20]: 70
Plant response rating, Quackgrass [8, 18]: 25
Plant response rating, Quackgrass [8, 19]: 35
Plant response rating, Quackgrass [8, 27]: 50
Plant response rating, Quackgrass [8, 20]: 30
Plant response rating, Dayflower, VA [9, 18]: 35
Plant response rating, Dayflower, VA [9, 19]: 70
Plant response rating, Dayflower, VA [9, 27]: 75
Plant response rating, Dayflower, VA [9, 20]: 60
Plant response rating, Purslane [10, 18]: 0
Plant response rating, Purslane [10, 27]: 50
Plant response rating, Purslane [10, 20]: 35
Plant response rating, Bluegrass [11, 18]: 5
Plant response rating, Bluegrass [11, 19]: 35
Plant response rating, Bluegrass [11, 27]: 35
Plant response rating, Bluegrass [11, 20]: 35
Plant response rating, Black Mustard [12, 18]: 70
Plant response rating, Black Mustard [12, 19]: 98
Plant response rating, Black Mustard [12, 27]: 98
Plant response rating, Black Mustard [12, 20]: 80
Plant response rating, Signalgrass [13, 18]: 20
Plant response rating, Signalgrass [13, 19]: 75
Plant response rating, Signalgrass [13, 27]: 85
Plant response rating, Signalgrass [13, 20]: 75
Plant response rating, Chickweed ([14]; 31 g ai/ha, scale 0 to 100): 25
Plant response rating, Chickweed [14, 26]: 60
Plant response rating, Chickweed ([14]; 250 g ai/ha, scale 0 to 100 (0 no effect, 100 complete control)): 70
Plant response rating, Chickweed ([14]; 62 g ai/ha, scale 0 to 100 (0 no effect, 100 complete control)): 50
Plant response rating, Crabgrass, Large [15, 18]: 40
Plant response rating, Crabgrass, Large [15, 19]: 65
Plant response rating, Crabgrass, Large [15, 27]: 70
Plant response rating, Crabgrass, Large [15, 20]: 65
Plant response rating, Russian Thistle [16, 18]: 35
Plant response rating, Russian Thistle [16, 27]: 35
Plant response rating, Russian Thistle [16, 20]: 35
